Data set [1] in a line: In vitro monkey plasma assay. The class given is in vitro ADME, cynomolgus monkey. Particulars: for Concentration: single replicates. The method, then:
Briefly, pooled frozen plasma was thawed at 37 °C prior to experiments. Plasma was centrifuged at 3720 x g for 5 min and any clots were removed. All blanks and working solutions were aliquoted on an Apricot automation workstation (2 μL/well of working solution (100 μM) with 98 μL plasma for NACE2i peptide (CP300638) and control compounds somatostatin acetate and procaine hydrochloride). All reaction plates containing mixtures of NACE2i, somatostatin acetate, and procaine hydrochloride and plasma were incubated at 37 °C in a water bath for 0, 15, 30, 60, 120, 240, and 360 min. Incubation was stopped with 4% H3PO4 and stop solution (200 ng/mL tolbutamide and 200 ng/mL labetalol in MeOH) to precipitate protein. Each plate was sealed and shaken for 20 min and then centrifuged at 3720 x g at 4 °C for 20 min. After centrifugation, the Apricot workstation was used to transfer 150 μL supernatant to each bioanalysis plate, which was then sealed and shaken for 10 min prior to LC-MS/MS analysis as per the manufacturer’s guidelines. LC: Shimadzu LC 30-AD, MS: QTRAP 6500 + , Autosampler: CTC PAL.

Data set [2] deals with H3K27ac. The arrangement: species or system golden Syrian hamsters. Particulars: hamster, in vivo.
Data set [3] relates to SARS-CoV-2 spike protein. Also on record: species or system golden Syrian hamsters. The settings on record: hamster, in vivo.
Data set [4] deals with PBMCs. It counts as cell-based, human. The settings on record: 10 µM 24 h.

Where “and” joins values, the source holds several entries; their conditions need not be identical. Identical values can stand only once. Where a SMILES comes first, the peptide text is derived from it. The star is where a group is joined. Myristoyl = CCCCCCCCCCCCCC(=O)*

As a reminder, the amount remaining is the share of the starting amount still present when the sample was taken. `CCCCCCCCCCCCCC(=O)N[C@H](C(=O)NCC(=O)N[C@H](C(=O)N[C@@H](CCCNC(=N)N)C(=O)N[C@@H](CC(=O)O)C(=O)N[C@@H](CCCNC(=N)N)C(=O)N[C@@H](CCCCN)C(=O)N[C@@H](CCCCN)C(=O)N[C@@H](CCCCN)C(=O)N[C@@H](CC(N)=O)C(=O)N[C@@H](CCCCN)C(=O)N[C@@H](C)C(=O)N[C@@H](CCCNC(=N)N)C(=O)N[C@@H](CO)C(=O)O)[C@@H](C)CC)[C@@H](C)O` [NACE2i] (Myristoyl-TGIRDRKKKNKARS-OH): the Concentration in data set [1] (cynomolgus monkey plasma, time 0 min) was 2270 nM and 2330 nM; in data set [1] (cynomolgus monkey plasma, time 15 min), 1960 nM and 1620 nM; in data set [1] (cynomolgus monkey plasma, time 30 min), 2060 nM and 2030 nM; in data set [1] (cynomolgus monkey plasma, time 60 min), 1840 nM and 1540 nM; in data set [1] (cynomolgus monkey plasma, time 120 min), 1740 nM and 1890 nM; in data set [1] (cynomolgus monkey plasma, time 240 min), 1980 nM and 1920 nM. The Concentration in data set [1] (cynomolgus monkey plasma, time 360 min) was 1740 nM and 1850 nM. For the same compound, the “% Remaining” value in data set [1] (cynomolgus monkey plasma, time 360 min, n=2) worked out at 76.7741%. In addition, the fraction remaining at 0.25 h, 2 µM in data set [1] (monkey, plasma (pooled, frozen), cynomolgus monkey plasma, time 15 min, n=2) amounted to 86.2%. The share remaining at 0.5 h, 2 µM in data set [1] (monkey, plasma (pooled, frozen), cynomolgus monkey plasma, time 30 min, n=2) came out at 90.6%. This compound also returned a share remaining at 1 h, 2 µM in data set [1] (monkey, plasma (pooled, frozen), cynomolgus monkey plasma, time 60 min, n=2) of 81.1%. This compound also displayed a share remaining at 2 h, 2 µM in data set [1] (monkey, plasma (pooled, frozen), cynomolgus monkey plasma, time 120 min, n=2) of 76.6%. In addition, in data set [1] (monkey, plasma (pooled, frozen), cynomolgus monkey plasma, time 240 min, n=2), the amount remaining at 4 h, 2 µM turned out to be 87.4%. In addition, in data set [1] (pooled male cynomolgus monkey plasma, 2 µL of 100 µM working solution + 98 µL plasma, 37 °C, 0-360 min, LC-MS/MS, read-out: T1/2 in plasma), the half-life at 2 µM was 14.5 h. Besides, in data set [1] (pooled male cynomolgus monkey plasma, 2 µL of 100 µM working solution + 98 µL plasma, 37 °C, 360 min, LC-MS/MS), the “% remaining in plasma after 360 min incubation” value was determined as 78%. In data set [2], the “H3K27ac along with ACE2me in lung tissues” value was “significant H3K27ac induction”. In data set [3], the “SARS-CoV-2 spike protein signal intensity” value is reported as “significantly reduced”. The “population of SARS-CoV-2 spike protein-positive cells in bronchiolar epithelium” value in data set [3] is “significantly reduced”. Further, the IL-6 expression entry in data set [4] was “reduced”. The perforin expression result in data set [4] is recorded as “increased”.

The values are drawn from publication PMC10300102, “In vivo inhibition of nuclear ACE2 translocation protects against SARS-CoV-2 replication and lung damage through epigenetic imprinting” (Nature Communications, 2023).
